The results in this text go back to patent publication US9890147B2 (BAYER PHARMA AKTIENGESELLSCHAFT, priority 2012, dated 2018).

SMILES strings stand for the structures.

Test [1] has as its target T1, BRD4 (BD1) (Homo sapiens, UniProt O60885).
T1 construct: with relatively long constructs also being possible, preferably amino acids 44-168; made in house; host or cells: E. coli
The experiment in a line: Binding assay BRD4/acetylated peptide H4 (TR-FRET protein-protein interaction assay). An excerpt: Binding Assay BRD4/Acetylated Peptide H4 (“PRO”)
To assess the BRD4 binding of the substances described in the present application, their ability to inhibit the interaction between BRD4 (BD1) and acetylated histone H4 in a dose-dependent manner was quantified (Filippakopoulos et al., Cell, 2012, 149: 214-231).
For this purpose, use was made of a time-resolved fluorescence resonance energy transfer (TR-FRET) assay which measured binding between N-terminally His6-tagged BRD4 (BD1) (amino acids 67-152, with relatively long constructs also being possible, preferably amino acids 44-168) and a synthetic acetylated histone H4 (Ac—H4) peptide having the sequence GRGK(Ac)GGK(Ac)GLGK(Ac)GGAK(Ac)RHGSGSK-biotin. The recombinant BRD4 protein-produced according to Filippakopoulos et al., Cell, 2012, 149: 214-231—was expressed in E. coli and purified by (Ni-NTA) affinity and (Sephadex G-75) size exclusion chromatography. The Ac—H4 peptide is commercially available, for example from Biosyntan (Berlin, Germany). In a typical assay, 11 different concentrations of each substance (0.1 nM, 0.33 nM, 1.1 nM, 3.8 nM, 13 nM, 44 nM, 0.15 μM, 0.51 μM, 1.7 μM, 5.9 μM and 20 μM) were measured in duplicate on the same microtitre plate. To this end, 100-fold concentrated solutions in DMSO were prepared by serial dilution (1:3.4) of a 2 mM stock solution in a clear 384-well microtitre platte (Greiner Bio-One, Frickenhausen, Germany) 50 nl of these were transferred into a black test plate (Greiner Bio-One, Frickenhausen, Germany). The test was started by addition of 2 μl of a 2.5-fold concentrated BRD4 solution (final concentration usually 10 nM in the […] of the reaction volume) in aqueous assay buffer [50 mM HEPES pH 7.5. 50 mM sodium chloride (NaCl), 0.25 mM CHAPS and 0.05% serum albumin (BSA)] to the substances in the test plate. This was followed by a 10-minute incubation step at 22° C. to pre-equilibrate putative complexes between BRD4 and the substances.
The mixture was then incubated in the dark for one hour at 22° C. and then for at least 3 hours and at most overnight at 4° C. Formation of BRD4/Ac—H4 complexes was determined by measuring the resonance energy transfer from the streptavidin-Eu cryptate to the anti-6His-XL665 antibody in the reaction. To this end, the fluorescence emission was measured at 620 nm and 665 nm after excitation at 330-350 nm in a TR-FRET measuring device, for example a Rubystar or Pherastar (both from BMG Lab Technologies, Offenburg, Germany) or a Viewlux (Perkin-Elmer). The ratio of the emission at 665 nm and at […] was used as an indicator for the amount of BRD4/Ac—H4 complexes formed.
The data obtained (ratios) were normalized, with 0% inhibition corresponding to the mean of the measured values of a set of controls (usually 32 data points) comprising all reagents. Here, 50 nl of DMSO (100%) were used instead of test substances. An inhibition of 100% corresponded to the mean of the measured values of a set of controls (usually 32 data points) comprising all reagents except for BRD4. The IC50 was determined by regression analysis based on a 4-parameter equation (minimum, maximum, IC50, Hill; Y=Max+(Min−Max)/(1+(X/IC 50)^Hill)).
Background: Time-resolved FRET reads energy transfer from a long-lived donor to a nearby acceptor.

Test [2] relates to MOLM-13 cells. The test is described as follows: Cell proliferation assay (alamarBlue), MOLM-13. It counts as cell-based. Particulars: Homo sapiens, 96 hours incubation, inhibition of cell proliferation. As for the experimental part: In accordance with the invention, the capability of the substances to inhibit cell proliferation was determined Cell viability was determined using the alamarBlue® reagent (Invitrogen) in a Victor X3 Multilabel Reader (Perkin Elmer). The excitation wavelength was 530 nm and the emission wavelenth […].
The MOLM-13 cells (DSMZ, ACC 554) were sown at a concentration of 4000 cells/well in 100 μl growth medium (RPMI1640, 10% FCS) on 96-well microtitre plates.
After an overnight incubation at 37° C., the fluorescence values (CI values) were determined. The plates were then treated with various substance dilutions (1E-5 M, 3E-6 M, 1E-6M, 3E-7 M, 1E-7 M, 3E-8 M, 1E-8 M) and incubated at 37° C. for 72 (MV4-11-, LOX-IMVI cells), 96 (MOLM-13-, B16F10-, MDA-MB-431-, Caov-3 cells), 120 (MOLP-8-, KMS-12-PE cells) or 168 (LAPC-4 cells) hours. The fluorescence values (CO values) were then determined. For the data analysis, the CI values were subtracted from the CO values and the results were compared between cells treated with different dilutions of the substance or with buffer solution only. These were used to calculate the IC 50 values (substance concentration required for 50% inhibition of cell proliferation).
(Resazurin is reduced to fluorescent resorufin, in cell work by metabolically active cells.)

For orientation: IC50 means the concentration that inhibits the measured activity by half. Read a high IC50 as a need for much substance. On to `CNC(=O)N1N=C(c2cccc(-c3c(C)noc3C)c2)c2cc(OC)c(OC)cc2CC1C` (racemic) [Example 31, (±)-1-[3-(3,5-Dimethylisoxazol-4-yl)phenyl]-7,8-dimethoxy-N,4-dimethyl-4,5-dihydro-3H-2,3-benzodiazepine-3-carboxamide], for which the 50% inhibitory concentration (IC50) came to 180 nM in test [1] and 270 nM in test [2]. On to `CNC(=O)N1N=C(c2ccc(Cl)cc2)c2cc(OCCN3CCOCC3)ccc2CC1C` (racemic) [Example 32, (±)-1-(4-Chlorophenyl)-N,4-dimethyl-8-[2-(morpholin-4-yl)ethoxy]-4,5-dihydro-3H-2,3-benzodiazepine-3-carboxamide], for which the IC50 in test [1] was 380 nM; in test [2], 1180 nM. Turning to `CNC(=O)N1N=C(c2ccc(-c3cccnc3Cl)cc2)c2cc(OC)c(OC)cc2C[C@H]1C` [Example 4.1, (R)-1-[4-(2-chloropyridin-3-yl)phenyl]-7,8-dimethoxy-N,4-dimethyl-4,5-dihydro-3H-2,3-benzodiazepine-3-carboxamide], the IC50 in test [1] came to 780 nM.

In test [1], `CNC(=O)N1N=C(c2ccc(-c3cccnc3Cl)cc2)c2cc(OC)c(OC)cc2C[C@@H]1C` [Example 4.2, (S)-1-[4-(2-chloropyridin-3-yl)phenyl]-7,8-dimethoxy-N,4-dimethyl-4,5-dihydro-3H-2,3-benzodiazepine-3-carboxamide] gave an IC50 of 60 nM. On the same count and under the same terms, under `CNC(=O)N1N=C(c2ccc(-c3ccc(C(F)(F)F)nc3)cc2)c2cc(OC)c(OC)cc2C[C@H]1C` [Example 50.2, (4R)-7,8-dimethoxy-N,4-dimethyl-1-{4-[6-(trifluoromethyl)pyridin-3-yl]phenyl}-4,5-dihydro-3H-2,3-benzodiazepine-3-carboxamide] stands 18900 nM. Regarding `CNC(=O)N1N=C(c2ccc(N3CCC(O)CC3)cc2)c2cc(OC)c(OC)cc2C[C@H]1C` [Example 130.2, (4R)-1-[4-(4-Hydroxypiperidin-1-yl)phenyl]-7,8-dimethoxy-N,4-dimethyl-4,5-dihydro-3H-2,3-benzodiazepine-3-carboxamide], the half-maximal inhibitory concentration (IC50) in test [1] was found to be 9870 nM. On the same count and under the same terms, under `CNC(=O)N1N=C(c2ccc(Cl)cc2)c2cc(OCCCN3CCN(C)CC3)ccc2C[C@H]1C` [Example 164.1, (4R)-1-(4-chlorophenyl)-N,4-dimethyl-8-[3-(4-methylpiperazin-1-yl)propoxy]-4,5-dihydro-3H-2,3-benzodiazepine-3-carboxamide] stands greater than 20000 nM; under `CNC(=O)N1N=C(c2ccc(N3CCC(OC)CC3)cc2)c2cc(OC)c(OC)cc2C[C@H]1C` [Example 179.1, (4R)-7,8-dimethoxy-1-[4-(4-methoxypiperidin-1-yl)phenyl]-N,4-dimethyl-4,5-dihydro-3H-2,3-benzodiazepine-3-carboxamide], 3770 nM; under `CNC(=O)N1N=C(c2ccc(N3CC(C)(O)C3)cc2)c2cc(OC)c(OC)cc2C[C@H]1C` [Example 185.1, (4R)-1-[4-(3-hydroxy-3-methylazetidin-1-yl)phenyl]-7,8-dimethoxy-N,4-dimethyl-4,5-dihydro-3H-2,3-benzodiazepine-3-carboxamide], 1490 nM.

`CNC(=O)C1CCN(c2ccc(C3=NN(C(=O)NC)[C@H](C)Cc4cc(OC)c(OC)cc43)cc2)CC1` [Example 189.2, (4R)-7,8-dimethoxy-N,4-dimethyl-1-{4-[4-(methylcarbamoyl)piperidin-1-yl]phenyl}-4,5-dihydro-3H-2,3-benzodiazepine-3-carboxamide] returned an IC50 in test [1] of 17400 nM.

In the case of `CNC(=O)N1N=C(c2ccc(N3CC[C@H](O)C3)cc2)c2cc(OC)c(OC)cc2C[C@@H]1C` [Example 190.1, (4S)-1-{4-[(3S)-3-hydroxypyrrolidin-1-yl]phenyl}-7,8-dimethoxy-N,4-dimethyl-4,5-dihydro-3H-2,3-benzodiazepine-3-carboxamide], in test [1], the IC50 is 30 nM.

In test [1], `CNC(=O)N1N=C(c2ccc(N3CCNC(=O)C3)cc2)c2cc(OC)c(OC)cc2C[C@@H]1C` [Example 194, (4S)-7,8-dimethoxy-N,4-dimethyl-1-[4-(3-oxopiperazin-1-yl)phenyl]-4,5-dihydro-3H-2,3-benzodiazepine-3-carboxamide] showed an IC50 of 480 nM.

In the case of `CNC(=O)N1N=C(c2ccc(N3C[C@@H](C)O[C@@H](C)C3)cc2)c2cc(OC)c(OC)cc2C[C@@H]1C` [Example 195, (4S)-1-{4-[(2R,6S)-2,6-dimethylmorpholin-4-yl]phenyl}-7,8-dimethoxy-N,4-dimethyl-4,5-dihydro-3H-2,3-benzodiazepine-3-carboxamide], in test [1], the IC50 was 690 nM. On the same count and under the same terms, under `CNC(=O)N1N=C(c2ccc(N3C[C@@H](C)N[C@@H](C)C3)cc2)c2cc(OC)c(OC)cc2C[C@@H]1C` [Example 198, (4S)-1-{4-[(3R,5S)-3,5-dimethylpiperazin-1-yl]phenyl}-7,8-dimethoxy-N,4-dimethyl-4,5-dihydro-3H-2,3-benzodiazepine-3-carboxamide] stands 5300 nM. On to `CC[C@@H]1Cc2cc(OC)c(OC)cc2C(c2ccc(N3CCNCC3)cc2)=NN1C(=O)NC` [Example 202.2, (4R)-4-ethyl-7,8-dimethoxy-N-methyl-1-[4-(piperazin-1-yl)phenyl]-4,5-dihydro-3H-2,3-benzodiazepine-3-carboxamide], for which, in test [1], the IC50 is 6540 nM. As for `CC[C@@H]1Cc2cc(OC)c(OC)cc2C(c2ccc(N3CCN(S(C)(=O)=O)CC3)cc2)=NN1C(=O)NC` [Example 203.2, (4R)-4-ethyl-7,8-dimethoxy-N-methyl-1-{4-[4-(methylsulphonyl)piperazin-1-yl]phenyl}-4,5-dihydro-3H-2,3-benzodiazepine-3-carboxamide], the IC50 in test [1] is 11200 nM. Same read-out and setting: next, `CNC(=O)N1N=C(c2ccc(Cl)cc2)c2ccc(N3CCOC3=O)cc2C[C@@H]1C` [Example 230.1, (4S)-1-(4-chlorophenyl)-N,4-dimethyl-7-(2-oxo-1,3-oxazolidin-3-yl)-4,5-dihydro-3H-2,3-benzodiazepine-3-carboxamide]: 330 nM; `CNC(=O)N1N=C(c2ccc(-c3c(C)nn(C)c3C)cc2)c2cc(OC(F)(F)F)ccc2C[C@H]1C` [Example 249.2, (4R)-N,4-dimethyl-8-(trifluoromethoxy)-1-[4-(1,3,5-trimethyl-1H-pyrazol-4-yl)phenyl]-4,5-dihydro-3H-2,3-benzodiazepine-3-carboxamide]: 2340 nM; `CNC(=O)N1N=C(c2ccc(N3CCN(C)CC3)cc2)c2cc(OC(F)(F)F)ccc2C[C@H]1C` [Example 250.1, (4R)-N,4-dimethyl-1-[4-(4-methyl-1-piperazinyl)phenyl]-8-(trifluoromethoxy)-4,5-dihydro-3H-2,3-benzodiazepine-3-carboxamide]: 9890 nM. In test [1], `CCNC(=O)N1N=C(c2ccc(N3CCN(C)CC3)cc2)c2cc(OC)c(OC)cc2C[C@@H]1C` [Example 261.1, (4S)—N-Ethyl-7,8-dimethoxy-4-methyl-1-[4-(4-methylpiperazin-1-yl)phenyl]-4,5-dihydro-3H-2,3-benzodiazepine-3-carboxamide] had an IC50 of 1220 nM.
